Test system: subjects with PAH
Test: Example 2 (ARIES-1) placebo-controlled Phase III trial, efficacy
Type: in vivo, human
Conditions: for Clinical worsening event: Atrial septostomy / Clinical worsening event: Death / Clinical worsening event: Escape criteria / Clinical worsening event: Hospitalization for PAH / Clinical worsening event: Lung transplantation / Clinical worsening event: Study discontinuation due to addition of PAH treatment / Clinical worsening: Total subjects with ≧1 event / subjects hospitalized for worsening right heart failure / subjects who had an event of clinical worsening: 12 weeks; for Change in 6MWD from baseline to Week 12, mean: ITT population; for geometric mean percent change in plasma BNP, decrease from baseline / geometric mean percent change in plasma ET-1, increase from baseline: Week 12
Protocol: The primary objective of this study was to determine the effect of ambrisentan on exercise capacity in subjects with pulmonary arterial hypertension (PAH). The secondary objectives of this study were to evaluate effects of ambrisentan on other clinical measures of PAH, as well as safety and tolerability of the study drug.
Study drug was provided in round, biconvex, oral tablets that were identical in appearance. Three strengths of active study drug containing 2.5 mg, 5 mg or 10 mg of ambrisentan were used in this study. All study drug was packaged in blister cards. Subjects were instructed to take study drug once daily (q.d.) by mouth (p.o.) in the morning, with or without food.
The maximum study duration was up to 14 weeks from the time of initial screening procedures to the final study visit (Week 12). Screening procedures were performed a maximum of 2 weeks prior to the first dose of study drug. The maximum duration of study drug treatment was 12 weeks.
Men and women, 18 years of age or older, with idiopathic PAH, PAH associated with CTD, e.g., mixed CTD, CREST syndrome, systemic sclerosis (scleroderma), overlap syndrome or systemic lupus erythematosus, or PAH associated with anorexigen use or HIV infection were enrolled in this study. Subjects were to have a documented mean PAP≧25 mmHg, PVR>3 mmHgL/min, and PCWP or LVEDP<15 mmHg. Subjects must have been able to walk a distance of at least 150 m but no more than 450 m during 2 consecutive 6MWTs to be eligible for inclusion in the study.
After a 2 week screening period, eligible subjects were stratified based on the underlying etiology of PAH (idiopathic or non-idiopathic) and were randomized to 1 of 3 treatment groups (placebo, 5 mg or 10 mg ambrisentan) in a ratio of 1:1:1. One blinded dose reduction was permitted during the 12-week treatment period in the event of study drug intolerance (e.g., 10 mg to 5 mg, 5 mg to 2.5 mg, placebo to placebo). Subjects received a daily dose of 2.5 mg ambrisentan only if they reduced from the 5 mg dose group. Subjects were assessed for efficacy and safety at monthly intervals.
Therefore, after a minimum treatment period of 4 weeks, subjects who met 2 or more of the following predefined early escape criteria may have been removed from the study: • (a) a decrease from baseline of at least 20% in 6MWD; • (b) an increase of 1 or more WHO functional class; • (c) worsening right ventricular failure (e.g., as indicated by increased jugular venous pressure, new or worsening hepatomegaly, ascites or peripheral edema); • (d) rapidly progressing cardiogenic, hepatic or renal failure; and/or • (e) refractory systolic hypotension (systolic blood pressure <85 mmHg).
The primary efficacy endpoint was change from baseline in 6MWD evaluated after 12 weeks of treatment compared to placebo.
The secondary efficacy endpoints included: • (a) time to clinical worsening of PAH, as defined by the time from randomization to the first occurrence of death, lung transplantation, hospitalization for PAH, atrial septostomy, study discontinuation due to addition of other PAH therapeutic agents, or study discontinuation due to 2 or more early escape criteria; • (b) change from baseline measured after 12 weeks of treatment compared to placebo in: • (i) WHO functional class; • (ii) SF-36® health survey physical functioning scale; • (iii) BDI immediately following exercise; and/or • (iv) an assessment of the safety and tolerability of the study drug; and • (c) change from baseline measured after 12 weeks of treatment compared to placebo in plasma levels of ET-1, BNP and cTnT. Safety Assessments
For the ITT population, subjects were considered as belonging to their randomized treatment group, regardless of the actual treatment received.
The primary efficacy endpoint was the change from baseline in 6MWD evaluated after 12 weeks of treatment compared to placebo, where the last observation was carried forward. […]

[1] = 5 mg once daily, baseline to Week 12
[2] = 10 mg once daily, baseline to Week 12

Compound: COC(c1ccccc1)(c1ccccc1)[C@H](Oc1nc(C)cc(C)n1)C(=O)O [ambrisentan]
- placebo-adjusted improvement in mean 6MWD at Week 12 (5 mg once daily): +30.6 m
- subjects at least maintaining their baseline WHO functional class at Week 12 (5 mg once daily): 98.5%
- Clinical worsening event: Atrial septostomy (5 mg once daily): 0 (0.0) subjects (% of ITT population)
- Clinical worsening event: Death (5 mg once daily): 1 (1.5) subjects (% of ITT population)
- Clinical worsening event: Escape criteria (5 mg once daily): 0 (0.0) subjects (% of ITT population)
- Clinical worsening event: Hospitalization for PAH (5 mg once daily): 2 (3.0) subjects (% of ITT population)
- Clinical worsening event: Lung transplantation (5 mg once daily): 0 (0.0) subjects (% of ITT population)
- Clinical worsening event: Study discontinuation due to addition of PAH treatment (5 mg once daily): 0 (0.0) subjects (% of ITT population)
- Clinical worsening: Total subjects with ≧1 event (5 mg once daily): 3 (4.5) subjects (% of ITT population)
- subjects hospitalized for worsening right heart failure (5 mg once daily): 1 subjects
- subjects who had an event of clinical worsening (5 mg once daily): 3 subjects
- Change in 6MWD from baseline to Week 12, mean (5 mg once daily): +22.8 meters
- geometric mean percent change in plasma BNP, decrease from baseline (5 mg once daily): 30%
- geometric mean percent change in plasma ET-1, increase from baseline (5 mg once daily): 96%
- Change in SF-36 Bodily pain, mean (SD) [1]: −1.43 ± 13.21
- Change in SF-36 General health, mean (SD) [1]: +0.08 ± 8.45
- Change in SF-36 Mental component summary, mean (SD) [1]: +0.50 ± 10.50
- Change in SF-36 Mental health, mean (SD) [1]: +0.81 ± 9.67
- Change in SF-36 Physical component summary, mean (SD) [1]: +1.88 ± 8.68
- Change in SF-36 Physical functioning, mean (SD) [1]: +3.86 ± 7.14
- Change in SF-36 Role-emotional, mean (SD) [1]: +1.41 ± 13.95
- Change in SF-36 Role-physical, mean (SD) [1]: +4.22 ± 10.52
- Change in SF-36 Social functioning, mean (SD) [1]: +1.11 ± 13.63
- Change in SF-36 Vitality, mean (SD) [1]: +2.38 ± 10.06
- Change in WHO functional class: +1 class [1]: 1 (1.5) subjects (% of ITT population)
- Change in WHO functional class: +2 classes [1]: 0 (0.0) subjects (% of ITT population)
- Change in WHO functional class: no change [1]: 47 (70.1) subjects (% of ITT population)
- Change in WHO functional class: −1 class [1]: 18 (26.9) subjects (% of ITT population)
- Change in WHO functional class: −2 classes [1]: 1 (1.5) subjects (% of ITT population)
- placebo-adjusted improvement in mean 6MWD at Week 12 (10 mg once daily): +51.4 m
- subjects at least maintaining their baseline WHO functional class at Week 12 (10 mg once daily): 95.5%
- Clinical worsening event: Atrial septostomy (10 mg once daily): 0 (0.0) subjects (% of ITT population)
- Clinical worsening event: Death (10 mg once daily): 1 (1.5) subjects (% of ITT population)
- Clinical worsening event: Escape criteria (10 mg once daily): 2 (3.0) subjects (% of ITT population)
- Clinical worsening event: Hospitalization for PAH (10 mg once daily): 2 (3.0) subjects (% of ITT population)
- Clinical worsening event: Lung transplantation (10 mg once daily): 0 (0.0) subjects (% of ITT population)
- Clinical worsening event: Study discontinuation due to addition of PAH treatment (10 mg once daily): 1 (1.5) subjects (% of ITT population)
- Clinical worsening: Total subjects with ≧1 event (10 mg once daily): 3 (4.5) subjects (% of ITT population)
- subjects hospitalized for worsening right heart failure (10 mg once daily): 1 subjects
- subjects who had an event of clinical worsening (10 mg once daily): 3 subjects
- Change in 6MWD from baseline to Week 12, mean (10 mg once daily): +43.6 meters
- geometric mean percent change in plasma BNP, decrease from baseline (10 mg once daily): 45%
- geometric mean percent change in plasma ET-1, increase from baseline (10 mg once daily): 48%
- Change in SF-36 Bodily pain, mean (SD) [2]: +2.26 ± 12.22
- Change in SF-36 General health, mean (SD) [2]: +3.25 ± 8.81
- Change in SF-36 Mental component summary, mean (SD) [2]: +2.11 ± 13.17
- Change in SF-36 Mental health, mean (SD) [2]: +1.55 ± 12.66
- Change in SF-36 Physical component summary, mean (SD) [2]: +4.79 ± 7.90
- Change in SF-36 Physical functioning, mean (SD) [2]: +4.52 ± 7.16
- Change in SF-36 Role-emotional, mean (SD) [2]: +2.98 ± 17.37
- Change in SF-36 Role-physical, mean (SD) [2]: +6.67 ± 10.35

Source: patent US9504685B2, “Method for treating a pulmonary hypertension condition” (Gilead Sciences, Inc., priority 2006, dated 2016)
